Results published in publication PMC9181938, “Fluorinated Analogues of Lepidilines A and C: Synthesis and Screening of Their Anticancer and Antiviral Activity” (Molecules, 2022).

Columns and labels:
Assay in all cases: Cytotoxicity MTT assay (0.1–1000 µM), CC50
[1] = test system: A549 cells; assay type: cell-based, Human; settings: 48 h, read-out: CC50 Cancer Cell Lines A549
[2] = test system: LLC-MK2 cells; assay type: cell-based, Macaca mulatta; settings: LLC-MK2, MTT, 48 h; read-out: CC50 Normal Cell Lines LLC-MK2
[3] = test system: HepG2 cells; assay type: cell-based, Human; settings: 48 h, read-out: CC50 Cancer Cell Lines HepG2
[4] = test system: HeLa cells; assay type: cell-based, Human; settings: MTT, 48 h, read-out: CC50 Cancer Cell Lines HeLa
[5] = test system: Vero cells; assay type: cell-based, Cercopithecus aethiops; settings: 48 h, read-out: CC50 Normal Cell Lines Vero
[6] = test system: MRC-5 cells; assay type: cell-based, Human; settings: MRC-5, MTT, 48 h; read-out: CC50 Normal Cell Lines MRC-5
[7] = test system: NCTC clone 929 cells; assay type: cell-based, Mus musculus; settings: NCTC clone 929, MTT, 48 h; read-out: CC50 Normal Cell Lines NCTC Clone 929

## Cc1c(C)[n+](Cc2cccc(F)c2)cn1Cc1ccccc1 [1e[PF6]] [1-Benzyl-3-(3-fluorobenzyl)-4,5-dimethylimidazolium hexafluorophosphate]
[1]
  CC50: 38 ± 3.46 µM
[2]
  CC50: 150 ± 2.52 µM
[3]
  CC50: 317 ± 5.77 µM
[4]
  CC50: 0.08 ± 0.001 µM
[5]
  CC50: 56.3 ± 3.21 µM
[6]
  CC50: 150 ± 4.17 µM
[7]
  CC50: 148 ± 11.5 µM
